pIC50: −log10 of the molar value.
How the values were obtained:
[1] = molecular target: T1, Neu1 sialidase (Mus musculus, UniProt O35657); assay: LPS-induced Neu1 sialidase activity in live RAW-blue macrophage cells (4MU-NeuAc fluorescence); type: cell-based; settings: for pIC50: LPS-induced sialidase activity on the cell surface of live RAW-blue macrophage cells, substrate 4MU-NeuAc, fluorescence at 1-2 min
T1 construct: endogenous in cells; host or cells: RAW-blue macrophage cells
Experimental: Inhibitory Potency of Compounds of the Application on Lipopolysaccharide (LPS)-Induced Neu1 Sialidase Activity in Live Raw-Blue Macrophage Cells
Compounds of the application were assessed for antiviral activity using an assay that detects sialidase activity on the surface of viable cells. […] Fluorescent images were taken at 1-2 minutes after adding the substrate using epi-fluorescent microscopy (40× objective). The mean fluorescence surrounding the cells for each of the images was measured using Image J software.

Row | Compound | melting point [°C] | pIC50 [1] | further results
1 | CCOC(=O)C1=C[C@@H]2OC(C)=N[C@@H]2[C@@H](NC(=O)OC(C)(C)C)C1 [Compound 14, (3aR,4S,7aS)-ethyl 4-(tert-butoxycarbonylamino)-2-methyl-3a,4,5,7a-tetrahydrobenzo[d]oxazole-6-carboxylate] | 45 to 49 |  | 
2 | CCOC(=O)C1=C[C@@H](OC(CC)CC)[C@H](NC(C)=O)[C@@H](NC(=O)OC(C)(C)C)C1 [Compound 15, (3R,4R,5S)-ethyl 4-acetamido-5-(tert-butoxycarbonylamino)-3-(pentan-3-yloxy)cyclohex-1-enecarboxylate] | 144 to 145 |  | 
3 | CC(=O)N[C@@H]1C=C[C@@](O)(C(=O)O)[C@H]2OC(C)(C)O[C@@H]12 [Compound 16, Sodium (3aS,4S,7R,7aS)-7-acetamido-4-hydroxy-2,2-dimethyl-3a,4,7,7a-tetrahydrobenzo[d][1,3]dioxole-4-carboxylate] |  | 6.85 | 
4 | CC(=O)N[C@@H]1/C(=N/O)C=C(C(=O)O)[C@H]2OC(C)(C)O[C@H]21 [Compound 17, Sodium (3aR,7R,7aS,E)-7-acetamido-6-(hydroxyimino)-2,2-dimethyl-3a,6,7,7a-tetrahydrobenzo[d][1,3]dioxole-4-carboxylate] |  | 7.90 | 
5 | CC(=O)N[C@H]1[C@@H]2OC(C)(C)O[C@@H]2C(C(=O)O)=C[C@H]1O [Compound 19, Sodium (3aR,6R,7R,7aS)-7-acetamido-6-hydroxy-2,2-dimethyl-3a,6,7,7a-tetrahydrobenzo[d][1,3]dioxole-4-carboxylate] |  | 5.13 | 
6 | CCOC(=O)C1=C[C@@H](OC(CC)CC)[C@H](NC(C)=O)[C@@H](N)C1 [oseltamivir phosphate 1a (Tamiflu ®), oseltamivir phosphate, reference compound] |  |  | inhibition of LPS-induced sialidase activity ([1]; RAW-blue macrophage cells, dose dependent manner): completely inhibited
